Measured values reported in the NIST ThermoML archive (doi:10.1021/acs.jced.6b00201).
± gives the expanded uncertainty stated by the source.

Legend:
[1] = for Triple point temperature / Glass transition temperature: DSC; for Normal melting temperature: visual observation
[2] = Molar enthalpy of transition or fusion; conditions: DSC

Normal melting temperature ([1]; Crystal)	Structure (SMILES)	Triple point temperature ([1]; Crystal)	Glass transition temperature [1]	Molar enthalpy of transition or fusion ([2]; Crystal 1)	other results
	CCCCn1cc[n+](C)c1.O=S(=O)([O-])C(F)(F)F [1-butyl-3-methylimidazolium trifluoromethanesulfonate]	291.46 ± 1.2 K			Molar enthalpy of transition or fusion ([2]; Crystal): 4.82 ± 0.141 kcal/mol
172.69 ± 2 °C	NNC(=O)c1ccncc1 [isonicotinic acid hydrazide]				
	CCCCn1cc[n+](C)c1.F[P-](F)(F)(F)(F)F [1-butyl-3-methylimidazolium hexafluorophosphate]		-74.28 ± 1.2 °C	2.73 ± 0.0837 kcal/mol	Triple point temperature ([1]; Crystal 1): 286.46 ± 1.2 K
	CCCCCCCCn1cc[n+](C)c1.O=S(=O)([O-])C(F)(F)F [1-octyl-3-methylimidazolium trifluoromethanesulfonate]	283.51 ± 1.2 K		5.76 ± 0.165 kcal/mol	
188.27 ± 0.16 °C	NC(=O)c1cnccn1 [pyrazinecarboxamide]				
	CCCCn1cc[n+](C)c1.F[B-](F)(F)F [1-butyl-3-methylimidazolium tetrafluoroborate]		-83.90 ± 8 °C		
